ChEMBL document CHEMBL4699580, “Drophiobiolins A and B, Bioactive Ophiobolan Sestertepenoids Produced by Dreschslera gigantea” (J Nat Prod, 2020)
Activity calls are given as the source filed them. The rule behind the calls is not given here.

What was measured:
Digitaria sanguinalis [1] = assay: Phytotoxicity against Digitaria sanguinalis leaves assessed as diameter of necrosis at 10^-3 M by leaf-puncture assay; format: functional; conditions: dose 0.001 M; 1000 µM
RD = assay: Cytotoxicity against human RD cells assessed as reduction in cell viability relative to control; format: functional
B16-F10 = assay: Antiproliferative activity against mouse B16-F10 cells assessed as reduction in cell viability after 72 hrs by MTT assay; format: functional, cell-based; conditions: B16-F10, 72 h
Solanum lycopersicum [2] = assay: Phytotoxicity against Lycopersicon esculentum leaf assessed as diameter of necrosis at 10^-3 M by leaf-puncture assay; format: functional; conditions: dose 0.001 M; 1000 µM
Chenopodium album [3] = assay: Phytotoxicity against Chenopodium album leaf assessed as diameter of necrosis at 10^-3 M by leaf-puncture assay; format: functional; conditions: dose 0.001 M; 1000 µM
Digitaria sanguinalis [4] = assay: Phytotoxicity against Digitaria sanguinalis leaf assessed as diameter of necrosis at 10^-4 M by leaf-puncture assay; format: functional; conditions: dose 0.0001 M; 100 µM
Solanum lycopersicum [5] = assay: Phytotoxicity against Lycopersicon esculentum leaf assessed as diameter of necrosis at 10^-4 M by leaf-puncture assay; format: functional; conditions: dose 0.0001 M; 100 µM
Chenopodium album [6] = assay: Phytotoxicity against Chenopodium album leaf assessed as diameter of necrosis at 10^-4 M by leaf-puncture assay; format: functional; conditions: dose 0.0001 M; 100 µM
HaCaT = assay: Cytotoxicity against human HaCaT cells assessed as reduction in cell viability at 0.5 to 10 uM after 24 hrs by MTT assay relative to control; format: functional; conditions: dose microM 0.5-10
A-431 = assay: Cytotoxicity against human A-431 cells assessed as reduction in cell viability at 0.5 to 10 uM after 24 hrs by MTT assay relative to control; format: functional; conditions: dose microM 0.5-10
HeLa [7] = assay: Cytotoxicity against human HeLa cells assessed as reduction in cell viability at 0.5 to 10 uM after 24 hrs by MTT assay relative to control; format: functional; conditions: dose microM 0.5-10
HeLa [8] = assay: Cytotoxicity against human HeLa cells assessed as reduction in cell viability after 24 hrs by MTT assay; format: functional, cell-based
NCI-H1299 = assay: Cytotoxicity against human NCI-H1299 cells assessed as reduction in cell viability at 0.5 to 10 uM after 24 hrs by MTT assay; format: functional, cell-based; conditions: dose microM 0.5-10, time 24.0 hrs

| Compound | Activity (Digitaria sanguinalis [1]) | Activity (RD) | IC50 (B16-F10) | Activity (Solanum lycopersicum [2]) | Activity (Chenopodium album [3]) | Activity (Digitaria sanguinalis [4]) | Activity (Solanum lycopersicum [5]) | Activity (Chenopodium album [6]) | Activity (HaCaT) | Activity (A-431) | Activity (HeLa [7]) | IC50 (HeLa [8]) | Activity (NCI-H1299) |
| --- | --- | --- | --- | --- | --- | --- | --- | --- | --- | --- | --- | --- | --- |
| CC(C)=C[C@H]1C[C@H](C)[C@]2(CC[C@]3(C)C[C@H]4[C@H](C(=O)C[C@@]4(C)O)/C(C=O)=C\C[C@H]32)O1 [OPHIOBOLIN A] | 3 mm | 70% | 0.29 µM | 3 mm | 3 mm | 3 mm | 3 mm | 2 mm | – | – | – | – | – |
| CC1=CC(=O)[C@H]2/C(C=O)=C\C[C@@H]3[C@](C)(CC[C@]3(O)[C@@H](C)CCCC(C)(C)O)C[C@H]12 | 3 mm | – | – | 2 mm | 3 mm | 2 mm | 1 mm | 0 mm | <=63% | <=72% | <=50% | 10 µM | inactive |
| CC(C)=C[C@H]1C[C@H](C)[C@]2(CC[C@]3(C)C[C@@H]4C(C)=CC(=O)/C4=C(\CO)C(=O)C[C@H]32)O1 | 3 mm | – | – | 2 mm | 3 mm | 2 mm | 2 mm | 1 mm | <=63% | <=72% | <=50% | 10 µM | inactive |
